One assay concerns blood eosinophilia. The experiment in a line: Sephadex induced blood eosinophilia in the rat. The class given is in vivo, Male Charles River Sprague Dawley rats. The following applies: 30 min before each Sephadex injection, n = 6. As to the method:
Induction of blood eosinonhilia and the effects of drugs.
Male Charles River Sprague Dawley rats weighing between 270 to 400 g were used.
The method used was a modification of that described by Laycock et al (Int. Arch. Appl. Immunol, (1986). 81, 363).
Sephadex G200, particle size 40 to 120 micron, was suspended in isotonic saline at 0.5 mg/ml, and stored for 48 h at 4° C. 1 ml of the suspension was given intravenously to rats on days 0, 2 and 5. The test compound was given before the Sephadex on each occasion, with a contact time expected to give maximum activity at the time of the Sephadex administration. Blood was taken from the tail vein of the rats on day 7 for the determination of total and differential leucocyte counts.
A control group of at least 6 animals was included each time a compound was evaluated. The control group received Sephadex and the vehicle without test compound. The results in the drug treated animals were compared with the control group.
[…] of blood, taken from the tail vein of the rats, were added to 10 ml of Isoton II and, within 30rain, Zapoglobin (3 drops) was added, to lyse the erythrocytes. Five minutes later the total cell count was determined using a Coulter Counter Model DN. […] A minimum of 400 cells were counted on each slide.
Probability values were calculated using the Student's t test. […]

The target in a further assay is PDE (IV). The experiment in a line: Inhibition of phosphodiesterase PDE IV (cAMP-specific), boronate column method. The format is biochemical, guinea-pig. The following applies: cAMP as substrate, 37° C., pH 7.5; read-out: Inhibition of PDE expressed as IC50, PDE (IV). Here is the method:
(§1) The Ca^2+ /calmodulin-stimulated PDE (PDE I, see Table 1 and Beavo and Reifsynder (1990) for nomenclature) was prepared from bovine cardiac ventricle. Following chromatography on a Mono Q column, the fractions showing stimulation of PDE activity by CA^2+ and calmodulin were pooled and further purified on a calmodulin-affinity column. […] Initial chromatography on a 20 ml Mono Q column resolved PDE III from a peak that contained both PDE II and PDE IV. The latter were separated by a cGMP-affinity column. The resolved PDEs were separately rechromatographed on a 1 ml Mono Q column. cGMP-selective PDE (PDE V) was obtained from porcine lung using chromatography on DEAE-cellulose and Mono Q columns; a calmodulin-affinity column was used to remove residual PDE I activity.
PDE activity was assayed by the boronate column method as previously described (Reeves et al., 1987). The enzymes were assayed by incubation at 37° C. for 4-30 min in 50 mM Tris, 5 mM MgCl2, pH 7.5 with ^3 H-labelled cyclic nucleotide (4×105 disintegrations min^-1) and ^14 C-labelled nucleotide 5'-monophosphate (3×10^3 disintegrations min^-1). The assay was stopped by boiling, and the ^3 H-labelled 5'-monophosphate product separated from substrate on boronate columns. The reaction mixture was diluted with 0.5 mL 100 mM HEPES [N-(2-hydroxyethyl)piperazine-N ^1 -2-ethanesulfonic acid], 100 mM NaCl, pH 8.5, and applied to the column. The column was extensively washed with the same buffer, and the 5'-nucleotide eluted with 6mL of 0.25M acetic acid.

A further assay deals with PDE (V) (Sus scrofa, UniProt A0A287B475). The experiment in a line: Inhibition of phosphodiesterase PDE V (cGMP-specific), boronate column method. The class given is biochemical, porcine. The following applies: 37° C., pH 7.5; read-out: Inhibition of PDE expressed as IC50, PDE (V). Here is the method:
The latter were separated by a cGMP-affinity column. The resolved PDEs were separately rechromatographed on a 1 ml Mono Q column. cGMP-selective PDE (PDE V) was obtained from porcine lung using chromatography on DEAE-cellulose and Mono Q columns; a calmodulin-affinity column was used to remove residual PDE I activity. PDEV This isoenzyme had high affinity for cGMP. […] PDE activity was assayed by the boronate column method as previously described (Reeves et al., 1987). The enzymes were assayed by incubation at 37° C. for 4-30 min in 50 mM Tris, 5 mM MgCl2, pH 7.5 with ^3 H-labelled cyclic nucleotide (4×105 disintegrations min^-1) and ^14 C-labelled nucleotide 5'-monophosphate (3×10^3 disintegrations min^-1). The assay was stopped by boiling, and the ^3 H-labelled 5'-monophosphate product separated from substrate on boronate columns. […] The column was extensively washed with the same buffer, and the 5'-nucleotide eluted with 6mL of 0.25M acetic acid.

The subject of assay [1] is Ca^2+ /calmodulin-stimulated PDE (PDE I). The assay can be described thus: Kinetic properties of phosphodiesterase isoenzyme I. The format is biochemical, bovine. The following applies: substrate of PDE I. Here is the method:
as §1, with “Following” for “The Ca^2+ /calmodulin-stimulated PDE (PDE I, see Table 1 and Beavo and Reifsynder (1990) for nomenclature) was prepared from bovine cardiac ventricle. Following”
(§2) The assay was stopped by boiling, and the ^3 H-labelled 5'-monophosphate product separated from substrate on boronate columns. The reaction mixture was diluted with 0.5 mL 100 mM HEPES [N-(2-hydroxyethyl)piperazine-N ^1 -2-ethanesulfonic acid], 100 mM NaCl, pH 8.5, and applied to the column. The column was extensively washed with the same buffer, and the 5'-nucleotide eluted with 6mL of 0.25M acetic acid.

Assay [2] relates to cGMP-stimulated PDE (PDE II). The experiment in a line: Kinetic properties of phosphodiesterase isoenzyme II. The class given is biochemical, guinea-pig. The following applies: substrate of PDE II; enzyme displayed positive cooperativity. As to the method: as §1, with “Following” for “The Ca^2+ /calmodulin-stimulated PDE (PDE I, see Table 1 and Beavo and Reifsynder (1990) for nomenclature) was prepared from bovine cardiac ventricle. Following”
as §2

The subject of assay [3] is cGMP-inhibited PDE (PDE III). The assay can be described thus: Kinetic properties of phosphodiesterase isoenzyme III. The class given is biochemical, guinea-pig. The following applies: substrate of PDE III. Here is the method: as §1, with “Following” for “The Ca^2+ /calmodulin-stimulated PDE (PDE I, see Table 1 and Beavo and Reifsynder (1990) for nomenclature) was prepared from bovine cardiac ventricle. Following”
as §2

The subject of assay [4] is cAMP-specific PDE (PDE IV). The assay can be described thus: Kinetic properties of phosphodiesterase isoenzyme IV. The following applies: substrate of PDE IV, class symbol. The format is biochemical, guinea-pig. As to the method:
as §1, with “Following” for “The Ca^2+ /calmodulin-stimulated PDE (PDE I, see Table 1 and Beavo and Reifsynder (1990) for nomenclature) was prepared from bovine cardiac ventricle. Following”
as §2

Assay [5] deals with cGMP-specific PDE (PDE V). The assay can be described thus: Kinetic properties of phosphodiesterase isoenzyme V. The class given is biochemical, porcine. The following applies: substrate of PDE V. Here is the method: as §1, with “Following” for “The Ca^2+ /calmodulin-stimulated PDE (PDE I, see Table 1 and Beavo and Reifsynder (1990) for nomenclature) was prepared from bovine cardiac ventricle. Following”
PDEV This isoenzyme had high affinity for cGMP.
as §2

By IC50 is commonly meant the point on the concentration scale where inhibition reaches its midpoint. Consider `COc1ccc(S(=O)(=O)n2c(N)nc3c2c(=O)n(CC2CC2)c(=O)n3CC2CC2)cc1` [Example 2, 8-Amino-1,3-di(cyclopropylmethyl)-7-(4-methoxybenzenesulphonyl)xanthine], for which the “Eosinophilia, % of Control Mean ± SEM” value was 62 ± 7 % of Control in the assay with blood eosinophilia (20 mg/kg orally, *p < 0.05) and 51 ± 7 % of Control with blood eosinophilia (50 mg/kg orally, **p < 0.01). The IC50 on PDE (IV) was determined as 3 µM; on PDE (V), 0.4 µM.

As for `COc1ccc(S(=O)(=O)n2c(N)nc3c2c(=O)n(CC2CC2)c(=O)n3CC2CC2)cc1OC` [Example 3, 8-Amino-1,3-di-(cyclopropylmethyl)-7-(3,4-dimethoxy-benzenesulphonyl)xanthine], the IC50 at PDE (IV) stood at 4 µM; on PDE (V), 0.2 µM.

As to `Nc1nc2c(c(=O)n(CC3CC3)c(=O)n2CC2CC2)n1S(=O)(=O)c1ccc(Cl)cc1` [Example 9, 8-Amino-1,3-di(cylcopropylmethyl)-7-(4-chlorobenzenesulphonyl)xanthine], the IC50 at PDE (IV) was determined as 4 µM.

As for `COc1ccc(Cn2c(N(S(=O)(=O)c3ccccc3)S(=O)(=O)c3ccccc3)nc3c2c(=O)n(CC2CC2)c(=O)n3CC2CC2)cc1` [Example 23, 1,3-Di(cyclopropylmethyl)-8-di(benzenesulphonyl)amino-7-(4-methoxy-benzyl)xanthine], the IC50 at PDE (IV) is above 100 µM; on PDE (V), 7 µM.

`COc1ccc(S(=O)(=O)Nc2nc3c(c(=O)n(CC4CC4)c(=O)n3CC3CC3)n2Cc2cc(OC)c(OC)c(OC)c2)cc1` [Example 25, 1,3-Di(cyclopropylmethyl)-8-(4-methoxybenzenesulphonamido)-7-(3,4,5-trimethoxybenzyl)xanthine]: the IC50 at PDE (IV) was above 100 µM.

With `COc1ccc(S(=O)(=O)n2c(Cl)nc3c2c(=O)n(CC2CC2)c(=O)n3CC2CC2)cc1` [Example 7, 8-Chloro-1,3-di(cyclopropylmethyl)-7-(4-methoxybenzenesulphonyl)xanthine], the IC50 is 11 µM at PDE (IV) and above 100 µM on PDE (V).

A word on the Km: it is the substrate concentration at which the rate is half of its maximum. With `Nc1nc2c(ncn2[C@@H]2O[C@@H]3COP(=O)(O)O[C@H]3[C@H]2O)c(=O)[nH]1` [cGMP], the Km was 5 µM in assay [1]; 14 µM in assay [2]; 0.1 µM in assay [3]; above 100 µM in assay [4]; 1 µM in assay [5].

For the molecule `Nc1nc2c(c(=O)n(CC3CC3)c(=O)n2CC2CC2)n1S(=O)(=O)c1ccccc1` [Example 1, 8-Amino-7-benzenesulphonyl-1,3-di(cyclopropylmethyl)xanthine], the IC50 on PDE (IV) turned out to be 3 µM; at PDE (V), 4 µM.

The values above are taken from patent publication US5409934A, “Xanthine derivatives” (priority 1990, dated 1995).
